Source: paper PMC6214143, “Oncotoxic Properties of Serotonin Transporter Inhibitors and 5-HT1A Receptor Ligands” (International Journal of Molecular Sciences, 2018)
Where a name gives a salt, the structure may show the parent alone.

Assays:
[1] = target: T1, serotonin transporter (SERT) (Rattus norvegicus, UniProt P31652); assay: In vitro binding affinity for serotonin transporter ([3H]-citalopram displacement); details: rat cerebral cortex, read-out: SERT Ki ± SEM
T1 construct: Rat cerebral cortex was homogenized in 30 volumes of ice-cold 50 mM Tris-HCl; from tissue; host or cells: rat cerebral cortex (membrane pellet)
T1 sequence (P31652 whole entry): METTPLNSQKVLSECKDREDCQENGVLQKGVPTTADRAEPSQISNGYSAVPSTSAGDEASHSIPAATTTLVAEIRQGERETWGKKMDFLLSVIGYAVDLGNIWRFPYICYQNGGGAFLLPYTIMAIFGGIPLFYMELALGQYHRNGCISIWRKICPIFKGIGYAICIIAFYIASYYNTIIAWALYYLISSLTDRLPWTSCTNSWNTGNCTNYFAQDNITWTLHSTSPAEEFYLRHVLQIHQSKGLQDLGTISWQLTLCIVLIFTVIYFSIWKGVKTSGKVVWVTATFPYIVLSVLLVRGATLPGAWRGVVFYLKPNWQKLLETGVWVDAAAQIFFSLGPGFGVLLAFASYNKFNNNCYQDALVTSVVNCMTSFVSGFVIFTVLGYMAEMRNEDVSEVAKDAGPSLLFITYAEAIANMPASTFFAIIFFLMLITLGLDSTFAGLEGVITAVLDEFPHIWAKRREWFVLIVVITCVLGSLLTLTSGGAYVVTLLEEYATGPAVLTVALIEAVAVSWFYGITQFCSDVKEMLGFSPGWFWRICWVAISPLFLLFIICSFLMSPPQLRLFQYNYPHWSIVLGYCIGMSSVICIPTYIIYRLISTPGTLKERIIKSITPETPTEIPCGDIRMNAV
Protocol: The experiments were performed according to the method described by Owens et al. Rat cerebral cortex was homogenized in 30 volumes of ice-cold 50 mM Tris-HCl containing 150 mM NaCl and 5 mM KCl, pH 7.7 at 25 °C and centrifuged at 20,000 × g for 20 min. The supernatant was decanted, and the pellet was resuspended in 30 volumes of buffer and centrifuged three times. The final pellet was suspended in Tris-HCl buffer at a proportion of approximately 5 mg wet weight/mL. An increasing concentration of the analyzed compounds (30 μL) was added to the incubation mixture containing 240 μL of tissue suspension and 30 μL of 1 nM [^3H]-citalopram (used for labeling 5-HT-transporter). Non-specific binding was determined in the presence 30 μL of 1 μM imipramine (displacer). Duplicate samples were incubated at room temperature for 1 h. The incubation was terminated by rapid filtration over fiberglass filters FilterMate B (Perkin Elmer, Waltham, MA, USA) using a 96-well FilterMate harvester (PerkinElmer, Waltham, MA, USA). The radioactivity of the filters was measured with a MicroBeta TriLux 1450 scintillation counter. Ki values were calculated from the Cheng–Prusoff equation [31]: (1) Ki=IC50/1+Lo/KD where Lo is the labeled ligand concentration, and KD is the dissociation constant of the labeled ligand.

[2] = system: PC-3 cells; assay: MTT cell survival assay, PC-3 cells; format: cell-based, human; details: for IC50: Homo sapiens, PC-3 cells, MTT, 72 h; for Selectivity Index: IC50 Balb/c 3T3 / IC50 PC-3
Protocol: (§1) The effects of the test compounds on the survival of PC-3, SH-SY5Y, Balb/c 3T3 and HEK293 cells was measured with the aid of the 3-(4,5-dimethylthiazol-2-yl)-2,5-diphenyltetrazolium bromide (MTT) assay. The cells were cultured in 96-well plates (100 μL/well) for 72 h. The optimized initial densities were the following: for PC-3—60,000 cells/mL, SH-SY5Y and Balb/c 3T3—50,000 cells/mL.
(§2) After 20 h preincubation and evaluation of the uniformity of cell growth, the medium was aspirated, and the respective solutions of the substances were added to the culture medium. Control cells were only treated the solvent used for the compounds and medium alone.
(§3) MTT (3-(4,5-dimethylthiazol-2-yl)-2,5-diphenyltetrazolium bromide) is reduced by intracellular dehydrogenase, which is present only in live cells (mitochondria), to purple, water-insoluble formazan. After it is dissolved, formazan absorbance of the resulting solution is directly proportional to the number of living cells in culture.
(§4) After appropriate incubation, the culture medium was removed. Next, 50 μL of MTT solution (0.5 mg/mL) diluted in PBS to 0.5 mg/mL was added to each well. […] Then, the precipitated formazan was dissolved by the addition of 200 μL isopropanol. […] The plates were sealed to reduce evaporation before incubation. The test was performed in three to five independent experiments with four times the measured concentration tested. The cell survival percentage was determined as % of controls, which were cells treated with the test compound solvent at the highest concentration.

[3] = system: SH-SY5Y cells; assay: MTT cell survival assay, SH-SY5Y cells; format: cell-based, human; details: for IC50: Homo sapiens, SH-SY5Y cells, MTT, 72 h; for Selectivity Index: IC50 Balb/c 3T3 / IC50 SH-SY5Y
Protocol: as §1, §2, §3, §4

[4] = system: Balb/c 3T3 cells; assay: MTT cell survival assay, Balb/c 3T3 cells (normal reference); format: cell-based, murine; details: Mus musculus, BALB/c3T3, 72 h
Protocol: as §1, §2, §3
After appropriate incubation, the culture medium was removed. Next, 50 μL of MTT solution (0.5 mg/mL) diluted in PBS to 0.5 mg/mL was added to each well. The plates were incubated for 3 h at 37 °C. Then, the precipitated formazan was dissolved by the addition of 200 μL isopropanol. After a 24-hour incubation at 4 °C in the dark, the absorbance of the dissolved formazan was measured at 570 nm (the maximum absorption of formazan) and at 690 nm (reference wavelength) using a Power Wave XS microplate spectrophotometer (Bio-Tek, Winooski, VT, USA). The plates were sealed to reduce evaporation before incubation. The test was performed in three to five independent experiments with four times the measured concentration tested. The cell survival percentage was determined as % of controls, which were cells treated with the test compound solvent at the highest concentration.

[5] = target: T2, 5-HT1A receptor (Homo sapiens, UniProt P08908); assay: cAMP level (HTRF) in HEK293 cells that overexpress the 5-HT1AR gene; format: cell-based
T2 construct: EGFP; expressed in transfected cells
T2 sequence (P08908 1-422): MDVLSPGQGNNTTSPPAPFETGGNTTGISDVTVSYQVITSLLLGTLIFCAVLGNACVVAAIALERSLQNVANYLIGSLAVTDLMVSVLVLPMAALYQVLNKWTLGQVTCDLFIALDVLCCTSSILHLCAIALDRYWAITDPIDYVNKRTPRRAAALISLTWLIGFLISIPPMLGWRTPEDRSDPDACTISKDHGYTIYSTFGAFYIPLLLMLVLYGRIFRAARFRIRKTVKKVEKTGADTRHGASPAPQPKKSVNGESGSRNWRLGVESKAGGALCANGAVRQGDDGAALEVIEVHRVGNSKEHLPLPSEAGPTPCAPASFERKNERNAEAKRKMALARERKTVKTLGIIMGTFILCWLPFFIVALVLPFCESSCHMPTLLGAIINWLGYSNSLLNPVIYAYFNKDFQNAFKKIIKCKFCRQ
Protocol: (§5) The examination of the functional activity read out as cAMP level inhibition and ERK1/2 and Akt1 phosphorylation was performed according to the instructions of the One-plate Cisbio Bioassays cAMP dynamic 2, phospho-ERK (Thr202/Tyr204) and Akt1 phospho- S473 Cellular Assay Kits respectively, using a HEK293 human fibroblast cell line that overexpresses 5-HT1A receptors. […] The cAMP levels in PC-3 cells were determined using 600,000 cells/mL. Receptor activation with the appropriate ligands was carried out for 30 min, and then the cells were lysed. The results were analyzed with GraphPad Prism v 6.0 (GraphPad Software, San Diego, CA, USA) using its in-built functions. Ligand activity was determined using a 4-parameter equation of the dose-response function. […] M.
(§6) All compounds were tested with both agonists and antagonists. To test the response of cAMP to an agonist the cells were activated with forskolin (1 µM) followed by agonist addition. […] Data are an average of minimum three independent experiments in duplicate. The control of specific activity was measured under the same conditions on cells lacking the 5-HT1A receptor. The results were expressed as % of the reference agonist activity. In the antagonist mode 100% of the reference agonist activity (EC80) corresponded to 0% antagonist activity.

[6] = target: T2, 5-HT1A receptor; assay: ERK1/2 phosphorylation (HTRF) in HEK293 cells that overexpress the 5-HT1AR gene; format: cell-based; details: for EC50: agonist mode, HEK293-5-HT1A cells, read-out: ERK1/2 EC50
Protocol: as §5, §6

[7] = parameters: method as in PMID 23574807; details: Porsolt forced swim test; cited from earlier work
[8] = system: PC-3 prostate cancer cells; assay: Apoptosis determination (FITC Annexin V, flow cytometry) in PC-3 cells; format: cell-based, human; details: 72 h, sum of early and late apoptosis
Protocol: Apoptosis was measured using the FITC Annexin V Apoptosis Detection Kit I (BD Biosciences, San Jose, CA, USA). Cells, after incubations 72 h with tested agents, were centrifuged, rinsed twice with cold phosphate-buffered saline (PBS) and suspended in binding buffer at 1 × 10^6 cells/mL. Then, 100-μL volumes of the cell suspensions were labeled according to the manufacturer’s instructions. Flow cytometry analysis was performed within 1 h after labeling. Flow cytometry analyses was run on a FACSCanto II flow cytometer (BD Biosciences, San Jose CA, USA) and analyzed using BD FACSDiva software.

Ki [1]	IC50 [5]	IC50 [6]	melting point	EC50 [6]	Structure (SMILES)	IC50 [2]	Selectivity Index [2]	IC50 [3]	Selectivity Index [3]	IC50 [4]	antidepressant activity [7]	apoptosis ([8]; 25 μM)	apoptosis ([8]; 50 μM)	apoptosis ([8]; 75 μM)	Selectivity Index ([2]; listed as KW117 (6))
0.0074 ± 0.0024 µM	96.9 µM	17.9 µM	–	–	Cl.O=[N+]([O-])c1ccc2nc(N3CCN(Cc4ccc(F)cc4)CC3)ccc2c1 [AB5A, 2-[4-(4-fluorobenzyl)piperazin-1-yl]-6-nitroquinoline hydrochloride]	27.2 ± 3.2 µM	1.43	18.1 ± 1.68 µM	2.15	38.9 ± 4.08 µM	–	–	–	–	–
0.0149 ± 0.0016 µM	0.002 µM	0.78 µM	107 to 108 °C	–	Cl.O=[N+]([O-])c1ccc2nc(N3CCN(CC4CCCCC4)CC3)ccc2c1 [AB21, 2-[4-(cyclohexylmethyl)piperazin-1-yl]-6-nitroquinoline hydrochloride]	18 ± 1.88 µM	1.14	21.6 ± 1.07 µM	0.95	20.5 ± 3.5 µM	–	–	–	–	–
0.0076 ± 0.0008 µM	76.1 µM	–	99 to 101 °C	0.0138 µM	Cl.O=[N+]([O-])c1ccc2nc(N3CCN(CC4CCC4)CC3)ccc2c1 [AB22, 2-[4-(cyclobutylmethyl)piperazin-1-yl]-6-nitroquinoline hydrochloride]	23.5 ± 2.21 µM	1.51	35 ± 8.96 µM	1.01	35.5 ± 8.71 µM	–	–	–	–	–
–	9.7 µM	1.28 µM	–	–	CCCCCCCCCN1CCN(c2ccc3cc([N+](=O)[O-])ccc3n2)CC1 [AZ05, 6-nitro-2-(4-nonylpiperazin-1-yl)quinolone hydrochloride]	9.85 ± 0.79 µM	2.48	17.3 ± 1.85 µM	1.41	24.4 ± 1.49 µM	moderate antidepressant activity	–	–	–	–
–	0.73 µM	0.9 µM	–	–	CCCCCCCCCCCN1CCN(c2ccc3cc([N+](=O)[O-])ccc3n2)CC1.Cl [AZ07, 6-nitro-2-(4-undecylpiperazin-1-yl)quinoline hydrochloride]	5.74 ± 1.02 µM	2.00	9.15 ± 0.74 µM	1.26	11.5 ± 0.62 µM	moderate antidepressant activity	20%	35%	44%	–
–	–	–	–	–	CNCCC(Oc1ccc(C(F)(F)F)cc1)c1ccccc1 (stereo not drawn) [Fluoxetine, fluoxetine, reference compound]	–	–	–	–	–	–	21%	60%	80%	–
–	–	–	–	–	COCCCC/C(=N\OCCN)c1ccc(C(F)(F)F)cc1 [Fluvoxamine, fluvoxamine, reference compound]	47.8 ± 2.85 µM	–	89.4 ± 3.64 µM	–	52 ± 5.4 µM	–	–	–	–	–
–	–	7.18 µM	–	–	CCCCCCCCN1CCN(c2ccc3cc([N+](=O)[O-])ccc3n2)CC1.Cl [KW117, 6-nitro-2-(4-octylpiperazin-1-yl)quinoline hydrochloride]	14.4 ± 1.7 µM	–	25.4 ± 2.66 µM	1.50	38.1 ± 6.54 µM	moderate antidepressant activity	–	–	–	2.65
–	20.1 µM	11.2 µM	–	–	COCCCC/C(=N\OCCNC(C)=O)c1ccc(C(F)(F)F)cc1 [N-Ac-Fluvoxamine, reference compound]	92.2 ± 9.65 µM	–	112 ± 3.85 µM	1.21	136 ± 3.95 µM	–	–	–	–	–
–	1 µM	–	–	4.23 µM	CC(=O)N1CCC(c2ccc(F)cc2)C(COc2ccc3c(c2)OCO3)C1 (stereo not drawn) [N-Ac-Paroxetine, reference compound]	45.3 ± 1.44 µM	1.46	65.6 ± 1.01 µM	1.01	66.2 ± 2.35 µM	–	–	–	–	–
–	0.0511 µM	–	–	0.15 µM	Fc1ccc([C@@H]2CCNC[C@H]2COc2ccc3c(c2)OCO3)cc1 [Paroxetine, paroxetine, reference compound]	12.1 ± 0.37 µM	1.23	18.1 ± 0.48 µM	0.82	14.9 ± 0.24 µM	–	–	–	–	–
–	–	–	–	–	COc1ccccc1N1CCN(CCN(C(=O)C2CCCCC2)c2ccccn2)CC1 [WAY100635, N-[2-[4-(2-Methoxyphenyl)-1-piperazinyl]ethyl]-N-2-pyridinylcyclohexanecarboxamide maleate, reference compound]	43.3 ± 4.05 µM	–	74.3 ± 11.8 µM	–	88 ± 13.5 µM	–	–	–	–	–
